Source: EP4491625A1, “BENZO BICYCLIC COMPOUND, AND PREPARATION METHOD AND APPLICATION THEREOF” (Guangzhou Unirise Pharmaceutical Co., Ltd., priority 2022, dated 2023)
Read-outs that look alike come from different tables or passages of the source.

How the values were obtained:
[1] = Pharmacokinetic study in rats (intravenous or gavage, plasma LC-MS/MS); assay type: in vivo; conditions: SD rats; for F: po 5 mg/kg versus iv 1 mg/kg; for AUC(0-t) / Cmax / Tmax / half-life: rat, plasma
Experimental: SD rats: male, 6-8 weeks old, weighing 200-300 g, purchased from SPF ( Beijing ) Biotechnology Co.,Ltd..
At each PK sampling point, 200 µL of whole blood was collected into EDTA-K2 anticoagulant blood tubes and centrifuged at 4°C for 30 min to obtain plasma. Whole blood samples were placed on wet ice before centrifugation. All collected plasma samples were stored on dry ice or frozen until analyzed.
Approximately1 mg of the compound of the present application was weighed and dissolved in DMSO, vortexed and sonicated to obtain a 1 mg/mL standard stock solution. The standard stock solution was diluted with 50% aqueous acetonitrile to obtain standard working solutions with concentrations of 5, 10, 20, 50, 100, 500, 1000, 5000 and 10000 ng/mL. QC working solutions with concentrations of 10, 20, 500 and 8000 ng/mL were prepared using the same dilution method. These QC samples were prepared on the day of analysis in the same way as the standard curve samples.5 µL of standard working solution with concentrations of (5, 10, 20, 50, 100, 500, 1000, 5000 and 10000 ng/mL) was added to 50 µL of blank SD rat plasma to obtain a total volume of 55 µL with concentrations of 0.5-1000 ng/mL (0.5, 1, 2, 5, 10, 50, 100, 500, and 1000 ng/mL) of standard curve samples. QC samples with concentrations of (1 ng/ml (low-1) and 2 ng/ml (low-2), 50 ng/ml (medium), 800 ng/ml (high)) were configured separately.
55 µL of standard samples, 55 µL of QC samples or 55 µL of unknown samples (50 µL of plasma samples added to 5 µL of 50% aqueous acetonitrile) were added to 200 µL of acetonitrile containing an internal standard (dexamethasone) to precipitate proteins. […] The supernatant was taken and diluted 3-fold with water, and 5 µL of the supernatant dilution was injected into the LC-MS/MS system for quantitative analysis under the following assay conditions:
Column: HALO 90A Phenly-Hexyl, 2µm 2.1×30mm.
Pharmacokinetic parameters were calculated by the […] of Phoenix TM Winnonlin® 8.3 software.

GLP-1 receptor = biological target: T1, GLP-1 receptor (Homo sapiens, UniProt P43220); test: cAMP detection assay of agonistic effect in HEK293 cells with high expression of hGLP-1R; assay type: cell-based
T1 construct: host or cells: HEK293
T1 sequence (P43220 24-463): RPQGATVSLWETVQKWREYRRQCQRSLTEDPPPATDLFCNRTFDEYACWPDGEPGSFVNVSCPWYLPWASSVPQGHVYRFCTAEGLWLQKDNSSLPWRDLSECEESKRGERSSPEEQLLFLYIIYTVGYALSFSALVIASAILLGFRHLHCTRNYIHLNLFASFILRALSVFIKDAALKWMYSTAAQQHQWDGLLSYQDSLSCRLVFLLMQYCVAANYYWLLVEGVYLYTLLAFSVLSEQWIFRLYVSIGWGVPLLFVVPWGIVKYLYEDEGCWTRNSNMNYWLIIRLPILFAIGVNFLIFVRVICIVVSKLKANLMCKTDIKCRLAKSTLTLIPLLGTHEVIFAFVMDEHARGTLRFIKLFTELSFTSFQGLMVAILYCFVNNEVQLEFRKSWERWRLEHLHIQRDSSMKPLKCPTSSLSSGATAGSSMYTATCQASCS
Experimental: The cells were constructed by Wuxi New Drug Development Co., Ltd. Shanghai.
The compound was prepared with DMSO to a working concentration of 100µM or 10µM. 10 points of 4-fold dilution (maximum concentration of 1000nM or 100nM after dilution) was done with Bravo V11.
The compound to be tested was diluted 4 times with Bravo to obtain 10 concentrations and the initial concentration was 100µM by Bravo V11. The initial concentration was 100µM.

[2] = Human liver microsome stability test; assay type: in vitro ADME; conditions: pH 7.4; human liver microsomes 0.5 mg/mL, 1 µM compound, NADPH, 37 °C
Experimental: Preparation of compound working solutions: A high-concentration stock solution of the subject and control drug verapamil powder was prepared in DMSO and diluted to a working solution of 100 µM with DMSO before use, with a final concentration of 1 µM of the subject and verapamil.
Preparation of phosphate buffer salt (100 mM, pH 7.4): 7.098 g of disodium hydrogen phosphate was weighed and dissolved ultrasonically in 500 mL of purified water as solution A. 3.400 g of potassium dihydrogen phosphate was weighed and dissolved ultrasonically in 250 mL of purified water as solution B. Solution B was added to the inside of solution A to give a pH of 7.4.
Preparation of 10 mM NADPH: An appropriate amount of NADPH is now weighed before the experiment and a working solution of 10 mM concentration is prepared from phosphate solution.
Preparation of the incubation system: The incubation system was prepared according to the following table, and the incubation system was preheated in a water bath at 37 °C for 10 minutes before use.
Transfer 25 µL of NADPH or phosphate buffer salt to the above incubation system and add 2.5 µL of 100 µM subject or verapamil. For NADPH-added samples, double-parallel preparations were performed; for NADPH-negative samples, single-parallel preparations were performed.
30 µL of the suspension was taken at 0.5, 5, 15, 30, and 60 min, respectively. The reaction was terminated by adding 150 µL of acetonitrile containing the internal standard and vortexed for 10 min.
This was followed by centrifugation at 3220 g for 40 min for protein precipitation. 100 µL of supernatant was transferred to the injection plate and mixed with 100 µL of pure water for UPLC-MS/MS analysis.
All data calculations were performed by Microsoft Excel software. Peak areas were detected by extracted ion mapping. The in vitro half-life (t1/2) of the parent drug was assayed by fitting the natural logarithm of the percentage elimination of the parent drug linearly with time.
The in vitro half-life (t1/2) was calculated by slope: t1/2 = 0.693 / k
The in vitro clearance (in µL/min/mg) was calculated using the following formula: CLint =0.693/ t1/2 * (Incubation system volume (μL) / protein content (mg)) [formula]
Table 3 the experimental results of human liver microsome of the compounds provided in some examples of the present invention

| SMILES | F [1] | AUC(0-t) ([1]; male, iv, 1 mg/kg) | Cmax ([1]; male, iv, 1 mg/kg) | Tmax ([1]; male, iv, 1 mg/kg) | half-life ([1]; male, iv, 1 mg/kg) | AUC(0-t) ([1]; male, po, 5 mg/kg) | Cmax ([1]; male, po, 5 mg/kg) | Tmax ([1]; male, po, 5 mg/kg) | half-life ([1]; male, po, 5 mg/kg) | EC50 (GLP-1 receptor; agonistic effect, cAMP, HEK293 cells with high expression of hGLP-1R, read-out: EC50) | half-life at 1 µM [2] | AUC(0-t) ([1]; iv, 1 mg/kg) | Cmax ([1]; iv, 1 mg/kg) | Tmax ([1]; iv, 1 mg/kg) | half-life ([1]; iv, 1 mg/kg) | AUC(0-t) ([1]; po, 5 mg/kg) | Cmax ([1]; po, 5 mg/kg) | Tmax ([1]; po, 5 mg/kg) | half-life ([1]; po, 5 mg/kg) | EC50 (GLP-1 receptor) |
| --- | --- | --- | --- | --- | --- | --- | --- | --- | --- | --- | --- | --- | --- | --- | --- | --- | --- | --- | --- | --- |
| O=C(O)c1ccc2nc(CC3CC=C(c4cccc(OCc5ccc(Cl)c6cc(F)oc56)n4)CC3)n(C[C@@H]3CCO3)c2c1 (stereo partly drawn) [Compound 2, 2-((4-(6-((4-chloro-2-fluorobenzofuran-7-yl)methoxy)pyridin-2-yl)cyclohex-3-en-1-yl)methyl)-1-(((S)-oxetan-2-yl)methyl)-1H-benzo[d]imidazole-6-carboxylic acid] | 31.8% | 1240 ng·h/mL | 2300 ng/mL | 0.083 h | 1.15 h | 1960 ng·h/mL | 754 ng/mL | 1 h | 2.56 h | 0.23 nM | 2.27 h | – | – | – | – | – | – | – | – | – |
| O=C(O)c1ccc2nc(C[C@H]3CC[C@H](c4cccc(OCc5ccc(Cl)c6cc(F)oc56)n4)CC3)n(C[C@@H]3CCO3)c2c1 [Compound 27B, 2-(((1r,4S)-4-(6-((4-chloro-2-fluorobenzofuran-7-yl)methoxy)pyridin-2-yl)cyclohexyl)methyl)-1-(((S)-oxetan-2-yl)methyl)-1H-benzo[d]imidazole-6-carboxylic acid] | 44.4% | – | – | – | – | – | – | – | – | – | 1.7 h | 1680 ng·h/mL | 2830 ng/mL | 0.083 h | 0.707 h | 3670 ng·h/mL | 1160 ng/mL | 0.833 h | 4.18 h | 0.17 nM |
